Experimental data as given in US20120035175A1, “Novel salts as Anti-Inflammatory, Immunomodulatory and Anti-Proliferatory Agents” (4SC AG, priority 2010, published 2012).
Where two headings read alike, the source gives them in different places.

Tests used:
recombinant murine DHODH = biological target: T1, recombinant murine DHODH (Mus musculus, UniProt O35435); test: Inhibition assay of DHODH activity (murine enzyme); type: biochemical; conditions: class symbols, key in nM
T1 construct: Prof; M. Löffler, Marburg, Germany (gift)
Description: (§1) The standard assay mixture contained 50 μM decyclo ubichinone, 100 μM dihydroorotate, 60 μM 2,6-dichloroindophenol, as well as 20 mU DHODH. The volume activity of the recombinant enzyme used was 30 U/ml. Measurements were conducted in 50 mM TrisHCl (150 mM KCl, 0.1% Triton X-100, pH 8.0) at 30° C. in a final volume of 1 ml. The components were mixed, and the reaction was started by adding dihydroorotate. The course of reaction was followed by spectrophotometrically measuring the decrease in absorption at 600 nm for […].
(§2) Inhibitory studies were conducted in a standard assay with additional variable amounts of inhibitor. […] These investigations were carried out with recombinant human as well as with recombinant murine DHODH provided by Prof. M. Löffler, Marburg, Germany [M. Löffler, Chem. Biol. Interact.

[1] = Dynamic vapor sorption (water uptake); type: physicochemical; conditions: for % water uptake at 85% r.h.: about 85% r.h.
From the text: DVS (SMS): Surface Measurement Systems Ltd. DVS-1 water vapour sorption analyzer. The sample is placed on a platinum sample pan and allowed to equilibrate at a given relative humidity (r.h.), usually 50% r.h. Then, a pre-defined humidity program was started with a scanning rate of 5% r.h. change per hour. First step: from 50% r.h. to 0% r.h. (in case of a possibly hydrate as starting material 50 to 95% r.h.), second step: from 0% to 95% r.h. (in case of a possibly hydrate as starting material 95 to 0% r.h.)

[2] = Long-term stability, 18 months storage, HPLC; type: physicochemical
Description: HPLC: HPLC was performed with a Dionex UltiMate® 3000 liquid chromatograph comprising a solvent Rack, a vacuum degasser, a binary pump (mikro), a static mixer (500 μl), an autosampler, a 25 μl sample loop, a 100 μl syringe, a column oven and a DAD detector (semimicro measuring cell), which was set up for UV analysis. Data analysis was done with Chromeleon® 6.80 SP3. Compounds were separated at 30° C. on a Phenomenex Onyx™ Monolithic C18 50×2 mm column. The injection volume was 2 μl and the detection wavelength was 305 nm. As mobile phase, a gradient of 0.1% formic acid in HPLC grade water/acetonitrile was used, starting at a concentration of 5% acetonitrile. The starting concentration was held for 1 minute, then the gradient was ramped linearly to 95% acetonitrile over the course of 2 min, held for 0.7 min at 95% acetonitrile, after which it was returned to 5% acetonitrile within 0.1 min and kept constant for 0.7 min to re-equilibrate the column. The mobile phase flow rate was 1.5 ml/min.
The compounds were stored for 18 months at ambient conditions (20-25° C., 30-60% relative humidity) and subsequently analysed by HPLC for purity.

recombinant human DHODH = biological target: T2, recombinant human DHODH (Homo sapiens, UniProt Q02127); test: Inhibition assay of DHODH activity (human enzyme); type: biochemical
T2 construct: Prof; M. Löffler, Marburg, Germany (gift)
Description: as §1, §2

[3] = Aqueous solubility and pH of the saturated solution; type: physicochemical
Description: Solubility: Solubility was determined by a stepwise addition of 0.05 mL portions of solvent to a suspension of 10 mg of sample in 0.05 mL of solvent.
The aqueous solubility of the respective compound was determined by HPLC, and the pH of the resulting saturated solution was measured. For each compound tested, a suspension was prepared and equilibrated for 24 hours at 25° C. The suspension was filtered, the filtrate was diluted and analysed by HPLC.

T1 sequence (O35435 whole entry): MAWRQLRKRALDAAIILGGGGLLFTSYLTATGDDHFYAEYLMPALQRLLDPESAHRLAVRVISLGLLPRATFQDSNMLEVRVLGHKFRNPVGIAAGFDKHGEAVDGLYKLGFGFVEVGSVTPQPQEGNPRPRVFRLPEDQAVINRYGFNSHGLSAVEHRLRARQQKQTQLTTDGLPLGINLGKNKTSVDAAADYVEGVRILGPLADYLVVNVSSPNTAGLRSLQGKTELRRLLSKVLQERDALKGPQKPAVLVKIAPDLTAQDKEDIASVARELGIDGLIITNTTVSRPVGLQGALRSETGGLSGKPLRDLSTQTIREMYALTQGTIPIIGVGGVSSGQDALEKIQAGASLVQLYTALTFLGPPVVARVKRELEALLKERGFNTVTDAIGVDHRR
T2 sequence (Q02127 whole entry): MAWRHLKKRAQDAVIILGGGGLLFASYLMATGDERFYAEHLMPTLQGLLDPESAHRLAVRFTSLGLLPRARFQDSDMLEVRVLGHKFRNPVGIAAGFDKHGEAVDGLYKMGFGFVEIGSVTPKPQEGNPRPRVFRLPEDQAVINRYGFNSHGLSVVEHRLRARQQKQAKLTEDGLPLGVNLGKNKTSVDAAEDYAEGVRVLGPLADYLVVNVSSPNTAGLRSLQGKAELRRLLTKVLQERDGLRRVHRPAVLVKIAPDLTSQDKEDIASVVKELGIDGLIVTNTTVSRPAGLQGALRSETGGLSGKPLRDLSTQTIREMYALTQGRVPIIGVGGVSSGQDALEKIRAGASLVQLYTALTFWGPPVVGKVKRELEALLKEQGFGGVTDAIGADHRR

SMILES | IC50 (recombinant murine DHODH) | further results
COc1ccccc1-c1c(F)c(F)c(NC(=O)C2=C(C(=O)O)CCC2)c(F)c1F [Compound 56, 2-((2,3,5,6-tetrafluoro-2′-methoxy-[1,1′-biphenyl]-4-yl)carbamoyl)cyclopent-1-enecarboxylic acid] | < 800 nM | –
O=C(O)C1=C(C(=O)Nc2cc(Br)c(OCc3ccccc3)c(Br)c2)CSC1 [Compound 29, 4-((4-(benzyloxy)-3,5-dibromophenyl)carbamoyl)-2,5-dihydrothiophene-3-carboxylic acid] | > 1500 nM | –
CCNCC.COc1cccc(-c2ccc(NC(=O)C3=C(C(=O)O)CCC3)c(F)c2)c1 [Diethylamine (DEA) salt] | – | % water uptake at 95% r.h. [1]: 0.5%; % water uptake at 85% r.h. [1]: 0.2%; Peak area ([2]; HPLC after 18 months storage at ambient conditions (20-25° C., 30-60% relative humidity)): >99%; Occurrence of hydrolysis product in HPLC after 18 months storage ([2]; ambient conditions (20-25° C., 30-60% relative humidity), LOD for hydrolysis product: 0.1 μg/ml): Below LOD*
CCOc1cccc(-c2ccc(NC(=O)C3=C(C(=O)O)CCC3)c(F)c2)c1 [Compound 46, 2-((3′-ethoxy-3-fluoro-[1,1′-biphenyl]-4-yl)carbamoyl)cyclopent-1-enecarboxylic acid] | > 1500 nM | –
O=C(O)C1=C(C(=O)Nc2ccc(OCc3c(F)cccc3Cl)c(Cl)c2)CCC1 [Compound 69, 2-((3-chloro-4-((2-chloro-6-fluorobenzyl)oxy)phenyl)carbamoyl)cyclopent-1-enecarboxylic acid] | < 800 nM | IC50 (recombinant human DHODH): < 800 nM
O=C(O)C1=C(C(=O)Nc2ccc(-c3ccccc3Cl)cc2)CCC1 [Compound 14, 2-((2′-chloro-[1,1′-biphenyl]-4-yl)carbamoyl)cyclopent-1-enecarboxylic acid] | > 1500 nM | –
COc1ccc(-c2cc(F)c(NC(=O)C3=C(C(=O)O)CCC3)c(F)c2)c(OC)c1 [Compound 67, 2-((3,5-difluoro-2′,4′-dimethoxy-[1,1′-biphenyl]-4-yl)carbamoyl)cyclopent-1-enecarboxylic acid] | > 1500 nM | –
O=C(O)C1=C(C(=O)Nc2ccc(-c3ccccc3Cl)cc2)CSC1 [Compound 41, 4-((2′-chloro-[1,1′-biphenyl]-4-yl)carbamoyl)-2,5-dihydrothiophene-3-carboxylic acid] | > 1500 nM | –
COc1cccc(-c2ccc(NC(=O)C3=C(C(=O)[O-])CCC3)c(F)c2)c1.[Na+] [Na salt] | – | % water uptake at 95% r.h. [1]: Ca. 7.5%; % water uptake at 85% r.h. [1]: Ca. 5%
COc1ccccc1-c1cc(Cl)c(NC(=O)C2=C(C(=O)O)CCC2)c(Cl)c1 [Compound 58, 2-((3,5-dichloro-2′-methoxy-[1,1′-biphenyl]-4-yl)carbamoyl)cyclopent-1-enecarboxylic acid] | 800 to 1500 nM | –
O=C(O)C1=C(C(=O)Nc2c(F)cc(-c3ccccc3F)cc2F)CCC1 [Compound 66, 2-((2′,3,5-trifluoro-[1,1′-biphenyl]-4-yl)carbamoyl)cyclopent-1-enecarboxylic acid] | 800 to 1500 nM | –
COc1ccc(-c2ccc(NC(=O)C3=C(C(=O)O)CCC3)cc2Cl)cc1 [Compound 19, 2-((2-chloro-4′-methoxy-[1,1′-biphenyl]-4-yl)carbamoyl)cyclopent-1-enecarboxylic acid] | < 800 nM | –
COc1cccc(-c2ccc(NC(=O)C3=C(C(=O)[O-])CCC3)c(F)c2)c1.[K+] [K salt] | – | % water uptake at 95% r.h. [1]: Ca. 1%; % water uptake at 85% r.h. [1]: Ca. 0.5%
O=C(O)C1=C(C(=O)Nc2cc(Br)c(OCc3ccc(F)c(F)c3)c(Br)c2)CCC1 [Compound 25, 2-((3,5-dibromo-4-((3,4-difluorobenzyl)oxy)phenyl)carbamoyl)cyclopent-1-enecarboxylic acid] | – | IC50 (recombinant human DHODH; recombinant human DHODH, class symbols, key in nM, read-out: human IC50-Value): < 800 nM
COc1ccccc1-c1ccc(NC(=O)C2=C(C(=O)O)CCC2)c(Cl)c1 [Compound 53, 2-((3-chloro-2′-methoxy-[1,1′-biphenyl]-4-yl)carbamoyl)cyclopent-1-enecarboxylic acid] | 800 to 1500 nM | –
COc1ccccc1-c1ccc(NC(=O)C2=C(C(=O)O)CCC2)c(C)c1 [Compound 57, 2-((2′-methoxy-3-methyl-[1,1′-biphenyl]-4-yl)carbamoyl)cyclopent-1-enecarboxylic acid] | 800 to 1500 nM | –
CCOc1ccccc1-c1cc(F)c(NC(=O)C2=C(C(=O)O)CCC2)c(F)c1 [Compound 62, 2-((2′-ethoxy-3,5-difluoro-[1,1′-biphenyl]-4-yl)carbamoyl)cyclopent-1-enecarboxylic acid] | 800 to 1500 nM | –
CCOc1cccc(-c2cc(F)c(NC(=O)C3=C(C(=O)O)CCC3)c(F)c2)c1 [Compound 63, 2-((3′-ethoxy-3,5-difluoro-[1,1′-biphenyl]-4-yl)carbamoyl)cyclopent-1-enecarboxylic acid] | 800 to 1500 nM | –
O=C(O)C1=C(C(=O)Nc2ccc(-c3cccc(F)c3)cc2F)CCC1 [Compound 27, 2-((3,3′-difluoro-[1,1′-biphenyl]-4-yl)carbamoyl)cyclopent-1-enecarboxylic acid] | > 1500 nM | –
O=C(O)C1=C(C(=O)Nc2cc(Br)c(OCc3cc(F)ccc3F)c(Br)c2)CCC1 [Compound 24, 2-((3,5-dibromo-4-((2,5-difluorobenzyl)oxy)phenyl)carbamoyl)cyclopent-1-enecarboxylic acid] | 800 to 1500 nM | –
COc1cccc(-c2ccc(NC(=O)C3=C(C(=O)O)CCC3)c(F)c2)c1.N=C(N)NCCCC(N)C(=O)O [L-Arginine salt] | – | % water uptake at 95% r.h. [1]: >12%; % water uptake at 95% r.h. ([1]; listed as arginine salt): > 12%; % water uptake at 85% r.h. [1]: 1.7%
O=C(O)C1=C(C(=O)Nc2ccc(-c3ccccc3F)cc2)CCC1 [Compound 13, 2-((2′-fluoro-[1,1′-biphenyl]-4-yl)carbamoyl)cyclopent-1-enecarboxylic acid] | > 1500 nM | –
[O-][n+]1ccccc1[S-].[O-][n+]1ccccc1[S-].[Zn+2] [Zinc salt] | – | Solubility ([3]; aqueous, suspension equilibrated for 24 hours at 25° C.): 950 µg/mL; pH ([3]; pH of the resulting saturated solution): 6.3; % water uptake at 95% r.h. [1]: 5.5%; % water uptake at 85% r.h. [1]: 4%
O=C(O)C1=C(C(=O)Nc2ccc(Oc3ccccc3)cc2)CCC1 [Compound 50, 2-((4-phenoxyphenyl)carbamoyl)cyclopent-1-enecarboxylic acid] | < 800 nM | –
COc1cccc(-c2ccc(NC(=O)C3=C(C(=O)[O-])CCC3)c(F)c2)c1.COc1cccc(-c2ccc(NC(=O)C3=C(C(=O)[O-])CCC3)c(F)c2)c1.[Mg+2] [Mg salt] | – | % water uptake at 95% r.h. [1]: Ca. 10%; % water uptake at 85% r.h. [1]: Ca. 5%
Cc1cccc(Sc2ccc(NC(=O)C3=C(C(=O)O)CCC3)cc2)c1 [Compound 42, 2-((4-(m-tolylthio)phenyl)carbamoyl)cyclopent-1-enecarboxylic acid] | < 800 nM | –
COc1ccccc1-c1ccc(NC(=O)C2=C(C(=O)O)CCC2)cc1Cl [Compound 54, 2-((2-chloro-2′-methoxy-[1,1′-biphenyl]-4-yl)carbamoyl)cyclopent-1-enecarboxylic acid] | 800 to 1500 nM | –
O=C(O)C1=C(C(=O)Nc2ccc(OCc3ccccc3F)c(Cl)c2)CCC1 [Compound 74, 2-((3-chloro-4-((2-fluorobenzyl)oxy)phenyl)carbamoyl)cyclopent-1-enecarboxylic acid] | < 800 nM | –
O=C(O)C1=C(C(=O)Nc2ccc(OCc3ccccc3)c(Cl)c2)CCC1 [Compound 72, 2-((4-(benzyloxy)-3-chlorophenyl)carbamoyl)cyclopent-1-enecarboxylic acid] | 800 to 1500 nM | –
O=C(O)C1=C(C(=O)Nc2ccc(OCc3ccccc3C(F)(F)F)c(Cl)c2)CCC1 [Compound 68, 2-((3-chloro-4-((2-(trifluoromethyl)benzyl)oxy)phenyl)carbamoyl)cyclopent-1-enecarboxylic acid] | > 1500 nM | –
